Measurements from ChEMBL document CHEMBL1126867, “Antipicornavirus activity of tetrazole analogues related to disoxaril” (1993).
Values after ≈ are worked out from the molar mass of the structure shown. Blank lines part the entries; values can stand above or below the molecule they belong to. Active and inactive are the calls of the source. The rule behind the calls is not given here.

Columns and labels:
[1] = test system: Human rhinovirus sp.; assay: (§1) Minimum inhibitory concentration which inhibits 80% of serotypes was determined; format: functional
[2] = test system: Human rhinovirus 1A; assay: In vitro antiviral activity against human rhinovirus-1A using plaque reduction assay; format: functional
[3] = test system: rhinovirus B14; assay: In vitro antiviral activity against human rhinovirus-14 using plaque reduction assay; format: functional, human rhinovirus type 14; settings: Rhinovirus B
[4] = test system: rhinovirus B14; assay: In vitro antiviral activity against human rhinovirus-14 using plaque reduction assay; not active; format: functional, organism-based; settings: human rhinovirus type 14
[5] = test system: Human rhinovirus 1A; assay: In vitro antiviral activity against human rhinovirus-1A using plaque reduction assay; not active; format: functional, organism-based
[6] = test system: Human rhinovirus sp.; assay: In vitro antiviral activity against human rhinovirus 67 serotype; format: functional
[7] = test system: Human rhinovirus sp.; assay: In vitro antiviral activity against human rhinovirus 89 serotype; format: functional
[8] = test system: Human rhinovirus sp.; assay: In vitro antiviral activity against human rhinovirus-15 serotype; format: functional
[9] = test system: Human rhinovirus sp.; assay: In vitro antiviral activity against human rhinovirus-22 serotype; format: functional
[10] = test system: Human rhinovirus sp.; assay: In vitro antiviral activity against human rhinovirus 6 serotype; format: functional
[11] = as §1; format: functional, human rhinovirus-1a, 14; settings: Human rhinovirus sp.
[12] = test system: Human rhinovirus sp.; assay: In vitro antiviral activity against human rhinovirus 86 serotype; format: functional
[13] = test system: Human rhinovirus sp.; assay: In vitro antiviral activity against human rhinovirus-21 serotype; format: functional
[14] = test system: Human rhinovirus sp.; assay: In vitro antiviral activity against human rhinovirus 50 serotype; format: functional
[15] = test system: Human rhinovirus sp.; assay: In vitro antiviral activity against human rhinovirus 2 serotype; format: functional
[16] = test system: Human rhinovirus sp.; assay: (§2) In vitro antiviral activity against human rhinovirus 1A serotype; format: functional
[17] = test system: Human rhinovirus sp.; assay: In vitro antiviral activity against human rhinovirus 1B serotype; format: functional
[18] = test system: Human rhinovirus sp.; assay: In vitro antiviral activity against human rhinovirus 14 serotype; format: functional
[19] = test system: Human rhinovirus sp.; assay: In vitro antiviral activity against human rhinovirus-41 serotype; format: functional
[20] = test system: Human rhinovirus sp.; assay: In vitro antiviral activity against human rhinovirus-30 serotype; format: functional
[21] = test system: Human rhinovirus sp.; assay: In vitro antiviral activity against human rhinovirus-25 serotype; format: functional
[22] = test system: Human rhinovirus 1B (rhinovirus A); assay: In vitro antiviral activity against human rhinovirus 1B serotype
[23] = test system: Human rhinovirus 1A; assay: as §2; format: functional

MIC80 [1]: 0.48 µM (≈ 0.17 µg/mL)
MIC50 [2]: 0.19 µM (≈ 0.0672 µg/mL)
MIC50 [3]: 0.48 µM (≈ 0.17 µg/mL)
SMILES: Cc1cc(-c2nnn(C)n2)cc(C)c1OCCCc1cc(C2CC2)no1

MIC50 [4]: inactive
MIC50 [5]: inactive
SMILES: Cc1cc(COc2c(C)cc(-c3nnn(C)n3)cc2C)on1

MIC50 [4]: inactive
MIC50 [5]: inactive
SMILES: COC(=O)Cn1nnc(-c2cc(C)c(OCCCCCc3cc(C)no3)c(C)c2)n1

MIC80 [1]: 0.54 µM (≈ 0.2 µg/mL)
MIC50 [2]: 0.54 µM (≈ 0.2 µg/mL)
MIC50 [3]: 0.11 µM (≈ 0.0406 µg/mL)
SMILES: CCCCc1cc(CCCOc2c(C)cc(-c3nnn(C)n3)cc2C)on1

MIC [6]: 0.14 µM (≈ 0.0458 µg/mL)
MIC [7]: 0.01 µM (≈ 0.00327 µg/mL)
MIC [8]: 0.18 µM (≈ 0.0589 µg/mL)
MIC [1]: 0.4 µM (≈ 0.131 µg/mL)
MIC [9]: 0.05 µM (≈ 0.0164 µg/mL)
MIC [10]: 2.2 µM (≈ 0.72 µg/mL)
MIC80 [11]: 0.4 µM (≈ 0.131 µg/mL)
MIC [12]: 2.05 µM (≈ 0.671 µg/mL)
MIC [13]: 0.02 µM (≈ 0.00655 µg/mL)
MIC [14]: 0.23 µM (≈ 0.0753 µg/mL)
MIC [15]: 0.02 µM (≈ 0.00655 µg/mL)
MIC [16]: 0.11 µM (≈ 0.036 µg/mL)
MIC [17]: 0.03 µM (≈ 0.00982 µg/mL)
MIC50 [2]: 0.11 µM (≈ 0.036 µg/mL)
MIC [18]: 1.7 µM (≈ 0.557 µg/mL)
MIC [19]: 0.4 µM (≈ 0.131 µg/mL)
MIC50 [3]: 1.74 µM (≈ 0.57 µg/mL)
MIC [20]: 0.07 µM (≈ 0.0229 µg/mL)
MIC [21]: 0.06 µM (≈ 0.0196 µg/mL)
SMILES: Cc1cc(CCCOc2c(C)cc(-c3nnn(C)n3)cc2C)on1

MIC [6]: 0.22 µM (≈ 0.0782 µg/mL)
MIC [7]: 0.02 µM (≈ 0.00711 µg/mL)
MIC [8]: 0.68 µM (≈ 0.242 µg/mL)
MIC [1]: 0.2 µM (≈ 0.0711 µg/mL)
MIC80 [1]: 0.2 µM (≈ 0.0711 µg/mL)
MIC [9]: 0.08 µM (≈ 0.0284 µg/mL)
MIC [10]: 0.15 µM (≈ 0.0533 µg/mL)
MIC [12]: 0.12 µM (≈ 0.0427 µg/mL)
MIC [13]: 0.02 µM (≈ 0.00711 µg/mL)
MIC [14]: 0.09 µM (≈ 0.032 µg/mL)
MIC [15]: 0.04 µM (≈ 0.0142 µg/mL)
MIC [16]: 0.12 µM (≈ 0.0427 µg/mL)
MIC [17]: 0.03 µM (≈ 0.0107 µg/mL)
MIC50 [2]: 0.12 µM (≈ 0.0427 µg/mL)
MIC [18]: 0.12 µM (≈ 0.0427 µg/mL)
MIC [19]: 0.93 µM (≈ 0.331 µg/mL)
MIC50 [3]: 0.12 µM (≈ 0.0427 µg/mL)
MIC [20]: 0.2 µM (≈ 0.0711 µg/mL)
MIC [21]: 0.006 µM (≈ 0.00213 µg/mL)
SMILES: CCCc1cc(CCCOc2c(C)cc(-c3nnn(C)n3)cc2C)on1

MIC50 [2]: 0.71 µM (≈ 0.264 µg/mL)
MIC50 [3]: 1.8 µM (≈ 0.669 µg/mL)
SMILES: Cc1cc(-c2nnn(C)n2)cc(C)c1OCCCc1cc(CC(C)O)no1 (stereo not given)

MIC80 [1]: 0.4 µM (≈ 0.149 µg/mL)
MIC50 [2]: 0.2 µM (≈ 0.0743 µg/mL)
MIC50 [3]: 0.17 µM (≈ 0.0631 µg/mL)
SMILES: Cc1cc(-c2nnn(C)n2)cc(C)c1OCCCc1cc(CCCO)no1

MIC80 [1]: 0.39 µM (≈ 0.139 µg/mL)
MIC50 [2]: 0.34 µM (≈ 0.121 µg/mL)
MIC50 [3]: 0.45 µM (≈ 0.16 µg/mL)
SMILES: Cc1cc(CCCCCOc2c(C)cc(-c3nnn(C)n3)cc2C)on1

MIC80 [1]: 1.09 µM (≈ 0.39 µg/mL)
MIC50 [2]: 0.14 µM (≈ 0.05 µg/mL)
MIC50 [3]: 2 µM (≈ 0.715 µg/mL)
SMILES: Cc1cc(-c2nnn(C)n2)cc(C)c1OCCCc1cc(CCO)no1

MIC50 [2]: 1.4 µM (≈ 0.54 µg/mL)
MIC50 [3]: 30.4 µM (≈ 11.7 µg/mL)
SMILES: Cc1cc(-c2nnn(C)n2)cc(C)c1OCCCCCc1cc(C(=O)O)no1

MIC50 [2]: 2.89 µM (≈ 1.33 µg/mL)
MIC50 [3]: 0.33 µM (≈ 0.152 µg/mL)
SMILES: COCCOCOCc1cc(CCCCCOc2c(C)cc(-c3nnn(C)n3)cc2C)on1

MIC80 [1]: 0.25 µM (≈ 0.0854 µg/mL)
MIC50 [2]: 0.67 µM (≈ 0.229 µg/mL)
MIC50 [3]: 0.8 µM (≈ 0.273 µg/mL)
SMILES: CCn1nnc(-c2cc(C)c(OCCCc3cc(C)no3)c(C)c2)n1

MIC50 [2]: 0.12 µM (≈ 0.0426 µg/mL)
MIC50 [3]: 0.96 µM (≈ 0.341 µg/mL)
SMILES: CC(=O)c1cc(CCCOc2c(C)cc(-c3nnn(C)n3)cc2C)on1

MIC80 [1]: 0.33 µM (≈ 0.113 µg/mL)
MIC50 [2]: 0.11 µM (≈ 0.0378 µg/mL)
MIC50 [3]: 1.4 µM (≈ 0.481 µg/mL)
SMILES: COc1cc(CCCOc2c(C)cc(-c3nnn(C)n3)cc2C)on1

MIC50 [5]: inactive
MIC50 [3]: 4.35 µM (≈ 1.68 µg/mL)
SMILES: Cc1cc(CCCCCOc2c(C)cc(-c3nnn(CCO)n3)cc2C)on1

MIC80 [1]: 0.3 µM (≈ 0.111 µg/mL)
MIC50 [2]: 0.12 µM (≈ 0.0446 µg/mL)
MIC50 [3]: 0.05 µM (≈ 0.0186 µg/mL)
SMILES: COCCc1cc(CCCOc2c(C)cc(-c3nnn(C)n3)cc2C)on1

MIC [6]: 0.18 µM (≈ 0.069 µg/mL)
MIC [7]: 0.02 µM (≈ 0.00767 µg/mL)
MIC [8]: 0.41 µM (≈ 0.157 µg/mL)
MIC [1]: 0.41 µM (≈ 0.157 µg/mL)
MIC [9]: 0.02 µM (≈ 0.00767 µg/mL)
MIC [10]: 0.23 µM (≈ 0.0882 µg/mL)
MIC [22]: 0.17 µM (≈ 0.0652 µg/mL)
MIC [12]: 0.21 µM (≈ 0.0805 µg/mL)
MIC [13]: 0.02 µM (≈ 0.00767 µg/mL)
MIC [14]: 0.3 µM (≈ 0.115 µg/mL)
MIC [15]: 0.02 µM (≈ 0.00767 µg/mL)
MIC [23]: 2.51 µM (≈ 0.962 µg/mL)
MIC [18]: 1.2 µM (≈ 0.46 µg/mL)
MIC [19]: 0.89 µM (≈ 0.341 µg/mL)
MIC [20]: 0.09 µM (≈ 0.0345 µg/mL)
MIC [21]: 0.29 µM (≈ 0.111 µg/mL)
SMILES: Cc1cc(CCCCCOc2c(Cl)cc(C3=NCCO3)cc2Cl)on1 [WIN-54954]

MIC80 [1]: 0.66 µM (≈ 0.225 µg/mL)
MIC50 [2]: 0.1 µM (≈ 0.0341 µg/mL)
MIC50 [3]: 2.43 µM (≈ 0.83 µg/mL)
SMILES: Cc1cc(CCCCOc2c(C)cc(-c3nnn(C)n3)cc2C)on1
